Legend:
[1] = Emulsion physical stability (visual / overall assessment); type: physicochemical; conditions: at pH7
Source text: As described herein, the pharmaceutical compositions of the disclosure may form a stable liquid emulsion at ambient conditions. An emulsion refers to a composition which, when diluted with water or other aqueous medium and gently mixed, yields a stable oil/water emulsion with a mean particle size of less than about 1 μm, but greater than about 100 nm, (i.e., 0.1-1 μm) and which is generally polydisperse. Such an emulsion is stable, meaning there is no visibly detectable phase separation and that there is no visibly detectable crystallization.
Equal mix of Phospholipon 90 G, Kolliphor RH40 and Capmul PG-8 was also very stable. Particle size evolution of Phospholipon 90G, Kolliphor RH40, Capmul PG-8 emulsions prepared via Ultra Turrax emulsification are shown in FIG. 4, and particle size evolution of 10 Phospholipon 90G, Kolliphor RH40, Capmul PG-8 emulsions: prepared via Silverson & High Pressure Homogeniser emulsification are shown in FIG. 5. Visual appearance of Phospholipon 90G, Kolliphor RH40, Capmul PG-8 emulsions under a 1 month stability study are shown in FIG. 6.

[2] = Gamma irradiation: physiochemical testing pre & post treatment; type: physicochemical
Source text: Gamma irradiation is a commonly accepted method of sterilizing componentry and reducing bio load in natural materials. Exemplary formulations were irradiated at various dosages and then assessed for the impact of irradiation on product performance.

Compound	effect on emulsion stability [1]	Appearance: Complies/fails ([2]; gamma irradiation 10 kGy)	Assay: Complies/fails ([2]; gamma irradiation 10 kGy)	Related substances: Complies/fails ([2]; gamma irradiation 10 kGy)	Related substances: result after treatment ([2]; gamma irradiation 10 kGy)	Appearance: Complies/fails ([2]; gamma irradiation 15 kGy)	Assay: Complies/fails ([2]; gamma irradiation 15 kGy)	Related substances: Complies/fails ([2]; gamma irradiation 15 kGy)	Related substances: result after treatment ([2]; gamma irradiation 15 kGy)	Appearance: Complies/fails ([2]; gamma irradiation 25 kGy)	Assay: Complies/fails ([2]; gamma irradiation 25 kGy)	Related substances: Complies/fails ([2]; gamma irradiation 25 kGy)	Related substances: result after treatment ([2]; gamma irradiation 25 kGy)
CCCCCCCC/C=C\CCCCCCCC(=O)[O-].[Na+] [Sodium oleate]	slight destabilizing effect												
CCCCCCCC(=O)OCC(COC(=O)CCCCCCC)OC(=O)CCCCCCC [Tricaprylin]		Complies	Complies	Complies*	profile changes	Complies	Complies	Complies*	profile changes	Complies	Complies	Complies*	profile changes
